According to patent US20060069132A1, “Azolecarboxamide herbicides” (priority 2004, published 2006):

Experiments:
woolly cupgrass = assay: Test C pre-/postemergence herbicide test; format: in vivo, Eriochloa villosa; conditions: preemergence
Method in brief: (§1)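 Pre- and postemergence application, solvent/surfactant formulation; post at 1- to 4-leaf stage (2–18 cm). Greenhouse 12–14 d. Visual rating vs controls, 0 = no effect, 100 = complete control.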

johnsongrass = assay: Test C pre-/postemergence herbicide test; format: in vivo, Sorghum halepense; conditions: preemergence
Method in brief: as §1

lambsquarters [1] = assay: Test C pre-/postemergence herbicide test; format: in vivo, Chenopodium album; conditions: preemergence
Method in brief: as §1

lambsquarters [2] = assay: Test B pre-/postemergence herbicide test; format: in vivo, Chenopodium album; conditions: for Plant response rating (0 to 100 scale), Lambsquarters: 0 is no effect
Method in brief: (§2)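 Herbicidal effect was judged by eye on a 0–100 scale after plants stood 13 to 15 days in the greenhouse following pre- or postemergence treatment with surfactant-containing formulations.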

cocklebur = assay: Test B pre-/postemergence herbicide test; format: in vivo, Xanthium strumarium; conditions: for Plant response rating (0 to 100 scale), Cocklebur: 0 is no effect
Method in brief: as §2

Surinam grass = assay: Test C pre-/postemergence herbicide test; format: in vivo, Urochloa decumbens; conditions: preemergence; for Plant response rating (0 = no effect, 100 = complete control), Surinam Grass: 125 g ai/ha
Method in brief: as §1

pigweed = assay: Test C pre-/postemergence herbicide test; format: in vivo, Amaranthus retroflexus; conditions: preemergence
Method in brief: as §1

[3] = 500 g ai/ha, scale 0 to 100 (0 no effect, 100 complete control), visual, 12 to 14 days
[4] = 125 g ai/ha, 100 is complete control, preemergence
[5] = 125 g ai/ha, visual rating, scale 0 (no effect) to 100 (complete control), postemergence
[6] = 500 g ai/ha, visual rating, 0 = no effect, 100 = complete control, preemergence
[7] = postemergence, 500 g ai/ha, scale 0 to 100, 0 is no effect, 100 is complete control
[8] = 125 g ai/ha, scale 0 (no effect) to 100 (complete control), visual, 12 to 14 days
[9] = 125 g ai/ha, 0 = no effect, 100 = complete control, preemergence
[10] = Postemergence, 500 g ai/ha, scale 0 (no effect) to 100 (complete control)

CCC1=NN(C(C)(C)C)CC1C(=O)Nc1cc(C(=O)N2CC=CC2)ccc1F (racemic) [Compound 340]
Plant response rating, Cupgrass, Woolly (woolly cupgrass; 62 g ai/ha, scale 0 to 100): 0 | Plant response rating (0 = no effect, 100 = complete control), Cupgrass, Woolly (woolly cupgrass; 125 g ai/ha): 20 | Plant response rating, Cupgrass, Woolly (woolly cupgrass; 250 g ai/ha, scale 0-100): 45 | Plant response rating, Cupgrass, Woolly (woolly cupgrass; [3]): 75 | Plant response rating, Johnsongrass (johnsongrass; 62 g ai/ha, scale 0 to 100): 15 | Plant response rating (0 = no effect, 100 = complete control), Johnsongrass (johnsongrass; 125 g ai/ha): 50 | Plant response rating, Johnsongrass (johnsongrass; 250 g ai/ha, scale 0-100): 50 | Plant response rating, Johnsongrass (johnsongrass; [3]): 90 | Plant response rating, Lambsquarters (lambsquarters [1]; 62 g ai/ha, scale 0 to 100): 70 | Plant response rating (0 = no effect, 100 = complete control), Lambsquarters (lambsquarters [1]; 125 g ai/ha): 80 | Plant response rating, Lambsquarters (lambsquarters [1]; 250 g ai/ha, scale 0-100): 100 | Plant response rating, Lambsquarters (lambsquarters [1]; [3]): 100 | Plant response rating (0 to 100 scale), Lambsquarters (lambsquarters [2]; [4]): 90 | Lambsquarters plant response rating (lambsquarters [2]; [5]): 30 | Plant response rating, Lambsquarters (lambsquarters [2]; [6]): 100 | Lambsquarters plant response rating (lambsquarters [2]; [7]): 70 | Plant response rating (0 to 100 scale), Cocklebur (cocklebur; [4]): 20 | Cocklebur plant response rating (cocklebur; [5]): 0 | Plant response rating, Cocklebur (cocklebur; [6]): 50 | Cocklebur plant response rating (cocklebur; [7]): 20 | Plant response rating, Surinam Grass (Surinam grass; 62 g ai/ha, scale 0 to 100): 0 | Plant response rating (0 = no effect, 100 = complete control), Surinam Grass (Surinam grass): 60 | Plant response rating, Surinam Grass (Surinam grass; 250 g ai/ha, scale 0-100): 65 | Plant response rating, Surinam Grass (Surinam grass; [3]): 85 | Plant response rating, Pigweed (pigweed; 62 g ai/ha, scale 0 to 100): 70 | Plant response rating (0 = no effect, 100 = complete control), Pigweed (pigweed; 125 g ai/ha): 85 | Plant response rating, Pigweed (pigweed; 250 g ai/ha, scale 0-100): 100 | Plant response rating, Pigweed (pigweed; [3]): 100

CCn1nc(C2(C)CC2)cc1C(=O)Nc1cccc(C(=O)N2CC=CC2)c1 [Compound 304]
Plant response rating, Cupgrass, Woolly (woolly cupgrass; 62 g ai/ha, scale 0 to 100): 5 | Plant response rating, Cupgrass, Woolly (woolly cupgrass; [8]): 10 | Plant response rating, Cupgrass, Woolly (woolly cupgrass; 250 g ai/ha, scale 0-100): 60 | Plant response rating, Cupgrass, Woolly (woolly cupgrass; [3]): 80 | Plant response rating, Johnsongrass (johnsongrass; 62 g ai/ha, scale 0 to 100): 0 | Plant response rating, Johnsongrass (johnsongrass; [8]): 60 | Plant response rating, Johnsongrass (johnsongrass; 250 g ai/ha, scale 0-100): 70 | Plant response rating, Johnsongrass (johnsongrass; [3]): 80 | Plant response rating, Lambsquarters (lambsquarters [1]; 62 g ai/ha, scale 0 to 100): 0 | Plant response rating, Lambsquarters (lambsquarters [1]; [8]): 100 | Plant response rating, Lambsquarters (lambsquarters [1]; 250 g ai/ha, scale 0-100): 100 | Plant response rating, Lambsquarters (lambsquarters [1]; [3]): 100 | Lambsquarters plant response rating (0 to 100 scale) (lambsquarters [2]; [9]): 100 | Lambsquarters plant response rating (lambsquarters [2]; [5]): 80 | Plant response rating, Lambsquarters (lambsquarters [2]; [6]): 100 | Lambsquarters plant response rating (lambsquarters [2]; [7]): 90 | Cocklebur plant response rating (0 to 100 scale) (cocklebur; [9]): 0 | Cocklebur plant response rating (cocklebur; [5]): 0 | Plant response rating, Cocklebur (cocklebur; [6]): 0 | Cocklebur plant response rating (cocklebur; [7]): 100 | Plant response rating, Surinam Grass (Surinam grass; 62 g ai/ha, scale 0 to 100): 0 | Plant response rating, Surinam Grass (Surinam grass; 250 g ai/ha, scale 0-100): 40 | Plant response rating, Surinam Grass (Surinam grass; [3]): 85 | Plant response rating, Pigweed (pigweed; 62 g ai/ha, scale 0 to 100): 100 | Plant response rating, Pigweed (pigweed; [8]): 100 | Plant response rating, Pigweed (pigweed; 250 g ai/ha, scale 0-100): 100 | Plant response rating, Pigweed (pigweed; [3]): 100

Cc1nn(C(C)(C)C)nc1C(=O)Nc1cccc(C(=O)N(C)C)c1 [Compound 391]
Plant response rating, Cupgrass, Woolly (woolly cupgrass; 62 g ai/ha, scale 0 to 100): 70 | Plant response rating (0 = no effect, 100 = complete control), Cupgrass, Woolly (woolly cupgrass; 125 g ai/ha): 75 | Plant response rating, Cupgrass, Woolly (woolly cupgrass; 250 g ai/ha, scale 0-100): 80 | Plant response rating, Cupgrass, Woolly (woolly cupgrass; [3]): 100 | Plant response rating, Johnsongrass (johnsongrass; 62 g ai/ha, scale 0 to 100): 100 | Plant response rating (0 = no effect, 100 = complete control), Johnsongrass (johnsongrass; 125 g ai/ha): 100 | Plant response rating, Johnsongrass (johnsongrass; 250 g ai/ha, scale 0-100): 100 | Plant response rating, Johnsongrass (johnsongrass; [3]): 100 | Plant response rating, Lambsquarters (lambsquarters [1]; 62 g ai/ha, scale 0 to 100): 100 | Plant response rating (0 = no effect, 100 = complete control), Lambsquarters (lambsquarters [1]; 125 g ai/ha): 100 | Plant response rating, Lambsquarters (lambsquarters [1]; 250 g ai/ha, scale 0-100): 100 | Plant response rating, Lambsquarters (lambsquarters [1]; [3]): 100 | Plant response rating (0 to 100 scale), Lambsquarters (lambsquarters [2]; [4]): 100 | Lambsquarters plant response rating (lambsquarters [2]; [5]): 70 | Lambsquarters plant response rating (lambsquarters [2]; [10]): 90 | Plant response rating (0 to 100 scale), Cocklebur (cocklebur; [4]): 70 | Cocklebur plant response rating (cocklebur; [5]): 30 | Cocklebur plant response rating (cocklebur; [10]): 30 | Plant response rating, Surinam Grass (Surinam grass; 62 g ai/ha, scale 0 to 100): 85 | Plant response rating (0 = no effect, 100 = complete control), Surinam Grass (Surinam grass): 95 | Plant response rating, Surinam Grass (Surinam grass; 250 g ai/ha, scale 0-100): 95 | Plant response rating, Surinam Grass (Surinam grass; [3]): 95 | Plant response rating, Pigweed (pigweed; 62 g ai/ha, scale 0 to 100): 95 | Plant response rating (0 = no effect, 100 = complete control), Pigweed (pigweed; 125 g ai/ha): 100 | Plant response rating, Pigweed (pigweed; 250 g ai/ha, scale 0-100): 100 | Plant response rating, Pigweed (pigweed; [3]): 100
